Test results from US4029799A, “Certain analgesically active substituted benzyl pyridine compounds” (Laboratorios Made, S.A., priority 1975, dated 1977).

How the values were obtained:
[1] = Acute toxicity (i.p.), method of Lichfield and Wilcoxon; type: in vivo, I.C.R. Swiss mice, both sexes; settings: mouse, in vivo, ip, mice, read-out: Lethal dose 50 (LD50)
Procedure: (§1) acute toxicity studies were carried out in I.C.R. Swiss mice weighing 24± 2 g, of both sexes. The products were administered intraperitoneally (i.p.). Acute toxicity was calculated by the method of Lichfield and Wilcoxon.

I.C.R. Swiss mice = test: as above; type: in vivo, both sexes
Procedure: as §1

[2] = tested on: female albino I.C.R. Swiss mice; test: Analgesic activity, Hot Plate Test at 55° C.; type: in vivo; settings: for Jump-off time: 30 minutes after administration, average ± standard mean error, control 77 ± 9.272
Procedure: the analgesic activity of 2-(3,4,5-trimethoxybenzyl)-3,4-dimethylpyridine compound (I) was investigated in female albino I.C.R. Swiss mice weighing 24± 2 g. For this the Hot Plate Test was used at 55° C. 4 groups of mice each comprising 10 animals, were assembled. The distribution of the groups was according to the following scheme:-
Group 1-- Control - 0.2 ml of distilled H2 O
Group 2-- Compound I-0.2 ml of a solution of 2-(3,4,5-trimethoxybenzyl)-3,4-dimethylpyridine (I), 3 mg/ml.
Group 3-- Compound I-0.2 ml of a solution of 2-(3,4,5-trimethoxybenzyl)-3,4-dimethylpyridine (I), 6 mg/ml.
Group 4-- Dextropropoxyphene - 0.2 ml of a solution of dextropropoxyphene, 6 mg/ml.
The products were injected intraperitoneally, and the measurements of analgesia were made 30 minutes after the administration of the drugs. Note was taken of the time taken for an animal to jump off the hot plate.

Row | SMILES | LD50 [1] [mg/kg] | toxicity compared with d-propoxyphene (I.C.R. Swiss mice) | Jump-off time ([2]; 25 mg/kg i.p.) [s] | Significance (jump-off time) ([2]; 25 mg/kg i.p., N.S. or p value) | Jump-off time ([2]; 50 mg/kg i.p.) [s] | analgesic activity compared with d-propoxyphene ([2]; for equal doses, Hot Plate Test) | therapeutic index compared with dextropropoxyphene ([2]; from analgesia and acute toxicity in mice)
1 | COc1cc(Cc2nccc(C)c2C)cc(OC)c1OC [Compound I, 2-(3,4,5-trimethoxybenzyl)-3,4-dimethylpyridine] | 250 | less toxic | 77 ± 8.203 | N.S. | 133.5 ± 12.581 | more analgesic than d-propoxyphene | greater than that of dextropropoxyphene
2 | CCC(=O)O[C@](Cc1ccccc1)(c1ccccc1)[C@H](C)CN(C)C [Dextropropoxyphene, reference compound] | – | – | – | – | 102.4 ± 10.302 | – | –
